Experimental data from ChEMBL document CHEMBL4385650, “X-ray crystal structures, density functional theory and docking on deacetylase enzyme for antiproliferative activity of hispolon derivatives on HCT116 colon cancer” (Bioorg Med Chem, 2019).

These molecules were tested on HCT-116 (assay: Antiproliferative activity against human HCT116 cells assessed as reduction in cell viability incubated for 72 hrs by MTT assay). Details: HCT-116, 72 h.
Type: functional, cell-based

Row | SMILES | IC50 [µM]
1 | COc1ccc(/C=C/C(=O)CC(C)=O)cc1OC | 4.7
2 | CC(=O)CC(=O)CCc1ccc(O)cc1 | 213
3 | COc1cc(/C=C/C(=O)CC(C)=O)cc(OC)c1OC | 28.8
4 | COc1cc(OC)c(CCC(=O)CC(C)=O)c(OC)c1 | 139
5 | COc1cc(CCC(=O)CC(C)=O)cc(OC)c1OC | 138
6 | COc1cc(/C=C/C(=O)CC(=O)/C=C/c2ccc(O)c(OC)c2)ccc1O [CURCUMIN] | 10.5

Continued by falling IC50, values first:

Row | IC50 [µM] | SMILES
7 | 215 | COc1ccc(CCC(=O)CC(C)=O)cc1OC
8 | 182 | COc1cc(CCC(=O)CC(C)=O)ccc1O
9 | 36 | CC(=O)CC(=O)/C=C/c1ccc(O)cc1
10 | 24.7 | COc1cc(/C=C/C(=O)CC(C)=O)cc(OC)c1O
11 | 8.5 | COc1cc(OC)c(/C=C/C(=O)CC(C)=O)c(OC)c1
12 | 5.2 | CC(=O)CC(=O)/C=C/c1ccc(O)c(O)c1
13 | 1.4 | COc1cc(/C=C/C(=O)CC(C)=O)ccc1O
